Tests used:
VERPE = assay: Post-emergence herbicidal effect, greenhouse pot test; format: in vivo, Veronica persica; settings: Veronica persica, 504 h, read-out: Post-emergence effect against VERPE in %
In short: (§1)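 Visual % activity scored roughly 3 weeks post-spray against untreated plants, where 100% means death and 0% equals control. Plants were treated at the one-leaf stage, 2 to 3 weeks after sowing in sandy loam, at 20 to 320 g/ha.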

ZEAMX = assay: Post-emergence herbicidal effect and crop plant compatibility, greenhouse pot test; format: in vivo, Zea mays; settings: Zea mays, 504 h, one-leaf stage, rated visually after about 3 weeks vs untreated controls; for plant injury at 20 g/ha: read-out: Post-emergence effect at 20 g/ha against ZEAMX in %; for plant injury at 80 g/ha: read-out: Post-emergence effect at 80 g/ha against ZEAMX in %
In short: (§2)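 Sandy loam pots, greenhouse. One-leaf stage (2–3 wk after sowing) foliar spray; WP/EC in water + 0.5% additive, 600 l/ha; 20–320 g/ha. Visual score ~3 wk, 0–100% vs untreated.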

TRZAS = assay: as above; format: in vivo, Triticum aestivum; settings: Triticum aestivum, 504 h, 20 g/ha, one-leaf stage, rated visually after about 3 weeks vs untreated controls, read-out: Post-emergence effect at 20 g/ha against TRZAS in %
In short: as §2

ECHCG = assay: Post-emergence herbicidal effect, greenhouse pot test; format: in vivo, Echinochloa crus-galli; settings: Echinochloa crus-galli, 504 h, read-out: Post-emergence effect against ECHCG in %
In short: as §1

KCHSC = assay: as above; format: in vivo; settings: 504 h, read-out: Post-emergence effect against KCHSC in %
In short: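 Greenhouse plants in sandy loam, sprayed post-emergence at the one-leaf stage (2–3 weeks after sowing) with WP or EC formulations in water plus 0.5% additive at 600 l/ha. Rates 20 to 320 g/ha. Activity rated visually after about 3 weeks against untreated controls (0% like control, 100% dead).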

PHBPU = assay: as above; format: in vivo, Ipomoea purpurea; settings: Ipomoea purpurea, 504 h, read-out: Post-emergence effect against PHBPU in %
In short: as §1

AVEFA = assay: as above; format: in vivo, Avena fatua; settings: Avena fatua, 504 h, visual rating about 3 weeks after treatment, read-out: Post-emergence effect against AVEFA
In short: as §1

AMARE = assay: as above; format: in vivo, Amaranthus retroflexus; settings: Amaranthus retroflexus, 504 h, visual rating about 3 weeks after treatment, read-out: Post-emergence effect against AMARE
In short: as §1

DIGSA = assay: as above; format: in vivo, Digitaria sanguinalis; settings: Digitaria sanguinalis, 504 h, visual rating about 3 weeks after treatment, read-out: Post-emergence effect against DIGSA
In short: as §1

ABUTH = assay: as above; format: in vivo, Abutilon theophrasti; settings: Abutilon theophrasti, 504 h, visual rating about 3 weeks after treatment, read-out: Post-emergence effect against ABUTH
In short: as §1

POLCO = assay: as above; format: in vivo, Fallopia convolvulus; settings: Fallopia convolvulus, 504 h, read-out: Post-emergence effect against POLCO in %
In short: as §1

LOLRI = assay: as above; format: in vivo, Lolium rigidum; settings: Lolium rigidum, 504 h, 320 g/ha, read-out: Post-emergence effect against LOLRI in %
In short: as §1

VIOTR = assay: as above; format: in vivo, Viola tricolor; settings: Viola tricolor, 504 h, read-out: Post-emergence effect against VIOTR in %
In short: as §1

SETVI = assay: as above; format: in vivo, Setaria viridis; settings: Setaria viridis, 504 h, 320 g/ha, read-out: Post-emergence effect against SETVI in %
In short: as §1

ALOMY = assay: as above; format: in vivo, Alopecurus myosuroides; settings: Alopecurus myosuroides, 504 h, 320 g/ha, visual rating about 3 weeks after treatment, read-out: Post-emergence effect against ALOMY
In short: as §1

CCOC(=O)C(OC)Oc1nn(-c2cnccn2)c(-c2ccc(F)nc2)c1Br (centres unmarked) [Example I-47]
pest or weed control at 80 g/ha (VERPE): 80%
pest or weed control at 320 g/ha (VERPE): 90%
plant injury at 20 g/ha (ZEAMX): 0%
plant injury at 80 g/ha (ZEAMX): 0%
percent crop injury (phytotoxicity) to wheat, post-emergence at 20 g/ha (TRZAS): 0%
pest or weed control at 80 g/ha (ECHCG): 90%
pest or weed control at 320 g/ha (ECHCG): 90%
pest or weed control at 80 g/ha (KCHSC): 90%
pest or weed control at 320 g/ha (KCHSC): 90%
pest or weed control at 80 g/ha (PHBPU): 80%
pest or weed control at 320 g/ha (PHBPU): 90%
pest or weed control at 320 g/ha (AVEFA): 80%
pest or weed control at 320 g/ha (AMARE): 80%
pest or weed control at 320 g/ha (DIGSA): 80%
pest or weed control at 80 g/ha (ABUTH): 80%
pest or weed control at 320 g/ha (ABUTH): 90%
pest or weed control at 80 g/ha (POLCO): 80%
pest or weed control at 320 g/ha (POLCO): 80%
pest or weed control at 320 g/ha (LOLRI): 90%
pest or weed control at 80 g/ha (VIOTR): 80%
pest or weed control at 320 g/ha (VIOTR): 90%

CCOC(=O)C(OC)Oc1nn(-c2ncccc2F)c(-c2ccc(F)nc2)c1C(F)(F)F (centres unmarked) [Example I-55]
pest or weed control at 320 g/ha (VERPE): 90%
plant injury at 20 g/ha (ZEAMX): 0%
plant injury at 80 g/ha (ZEAMX): 0%
percent crop injury (phytotoxicity) to wheat, post-emergence at 20 g/ha (TRZAS): 20%
pest or weed control at 80 g/ha (ECHCG): 90%
pest or weed control at 320 g/ha (ECHCG): 90%
pest or weed control at 320 g/ha (SETVI): 80%
pest or weed control at 80 g/ha (KCHSC): 90%
pest or weed control at 320 g/ha (KCHSC): 90%
pest or weed control at 320 g/ha (ALOMY): 90%
pest or weed control at 20 g/ha (PHBPU; 20 g/ha): 80%
pest or weed control at 80 g/ha (PHBPU): 80%
pest or weed control at 320 g/ha (PHBPU): 90%
pest or weed control at 80 g/ha (AVEFA; 80 g/ha): 90%
pest or weed control at 320 g/ha (AVEFA): 90%
pest or weed control at 80 g/ha (DIGSA; 80 g/ha): 90%
pest or weed control at 320 g/ha (DIGSA): 90%
pest or weed control at 80 g/ha (ABUTH): 80%
pest or weed control at 320 g/ha (ABUTH): 90%
pest or weed control at 80 g/ha (POLCO): 80%
pest or weed control at 320 g/ha (POLCO): 90%
pest or weed control at 320 g/ha (LOLRI): 90%
pest or weed control at 80 g/ha (VIOTR): 80%
pest or weed control at 320 g/ha (VIOTR): 90%

COC(=O)C(OC)Oc1nn(-c2ncccc2F)c(-c2ccc(F)nc2)c1Cl (centres unmarked) [Example I-38]
pest or weed control at 20 g/ha (VERPE; 20 g/ha): 80%
pest or weed control at 80 g/ha (VERPE): 80%
pest or weed control at 320 g/ha (VERPE): 100%
plant injury at 20 g/ha (ZEAMX): 0%
percent crop injury (phytotoxicity) to wheat, post-emergence at 20 g/ha (TRZAS): 0%
pest or weed control at 320 g/ha (ECHCG): 100%
pest or weed control at 320 g/ha (SETVI): 90%
pest or weed control at 320 g/ha (ALOMY): 100%
pest or weed control at 80 g/ha (PHBPU): 90%
pest or weed control at 320 g/ha (PHBPU): 90%
pest or weed control at 320 g/ha (AVEFA): 90%
pest or weed control at 80 g/ha (AMARE; 80 g/ha): 90%
pest or weed control at 320 g/ha (AMARE): 90%
pest or weed control at 320 g/ha (DIGSA): 90%
pest or weed control at 320 g/ha (ABUTH): 80%
pest or weed control at 80 g/ha (POLCO): 90%
pest or weed control at 320 g/ha (POLCO): 90%
pest or weed control at 320 g/ha (LOLRI): 100%
pest or weed control at 80 g/ha (VIOTR): 80%
pest or weed control at 320 g/ha (VIOTR): 90%
